Reference: patent US20080004329A1, “Pharmaceutical compositions of ropinirole and methods of use thereof” (priority 2006, published 2008)

Legend:
[1] = In vitro permeation, Franz cells, cadaver skin finite dose technique (Example 1); assay type: in vitro ADME, human
Experimental: The in vitro human cadaver skin model has proven to be a valuable tool for the study of percutaneous absorption and the determination of topically applied drugs. The model uses human cadaver skin mounted in specially designed diffusion cells that allow the skin to be maintained at a temperature and humidity that match typical in vivo conditions (Franz, T. J., “Percutaneous absorption: on the relevance of in vitro data,” J. Invest Dermatol 64:190-195 (1975)). A finite dose (for example: 4-7 mg/cm^2) of formulation is applied to the outer surface of the skin and drug absorption is measured by monitoring its rate of appearance in the receptor solution bathing the inner surface of the skin. Data defining total absorption, rate of absorption, as well as skin content can be accurately determined in this model. The method has historic precedent for accurately predicting in vivo percutaneous absorption kinetics (Franz, T. J., “The finite dose technique as a valid in vitro model for the study of percutaneous absorption in man,” In: Skin: Drug Application and Evaluation of Environmental Hazards, Current Problems in Dermatology, vol. 7, G. Simon, Z. Paster, M Klingberg, M. Kaye (Eds), Basel, Switzerland, S. Karger, pages 58-68 (1978)).
Percutaneous absorption was measured using the in vitro cadaver skin finite dose technique. Cryo-preserved, human cadaver trunk skin was obtained from a skin bank and stored in water-impermeable plastic bags at <−70° C. until used.
Prior to the experiment, skin was removed from the bag, placed in approximately 37° C. water for five minutes, and then cut into sections large enough to fit on 1 cm^2 Franz Cells (Crown Glass Co., Somerville, N.J.). Briefly, skin samples were prepared as follows. A small volume of phosphate buffered saline (PBS) was used to cover the bottom of the Petri dishes. Skin disks generally depleted of fat layers were placed in the Petri dishes for hydration. A Stadie-Riggs manual tissue microtome was used for slicing excised skin samples. Approximately 2 mL of PBS was placed into the middle cavity of the microtome as slicing lubricant. Skin disks were placed, dermal side up, into the middle cavity of the microtome. Filter paper was soaked with PBS, inserted in the cavity just above the skin disk. The filter paper prevented the dermis from sliding onto the top of the cutting block and helped to insure more precise cutting. When all three blades of the microtome were assembled, the microtome was turned into the upright position. Using a regular and careful sawing motion the skin tissue was sliced in cross-section. The skin tissue slice was removed with the tweezers and placed in the Petri dish for hydration. Each skin slice was wrapped in Parafilm® (Pechiney Plastic Packaging, Inc., Chicago, Ill.) laboratory film and placed in water-impermeable plastic bags. Skin samples were identified by the donor and the provider code. If further storage was necessary, the skin slices were stored in the freezer at −20° C. until further use.
The epidermal cell (chimney) was left open to ambient laboratory conditions. The dermal cell was filled with receptor solution. Receptor solution for in vitro skin permeations was typically an isotonic saline at physiological pH. The receptor solution may also contain a drug solubilizer, for example, to increase lipophilic drug solubility in the receptor phase. […]

[2] = Titration with NaOH for the experimental ionization profile in a hydroalcoholic base; assay type: physicochemical; conditions: hydroalcoholic vehicle (ethanol 45%, propylene glycol 20%, water 25.58%), not gellified; read-out: apparent pKa from the experimental ionization profile
Source text: The following formulation was used for titration to determine the experimental ionization profile of ropinirole in a hydroalcoholic base: Ropinirole hydrochloride* 3.42% w/w, myristyl alcohol 1.00% w/w, diethylene glycol monoethylether 5.00% w/w, propylene glycol 20.00% w/w, absolute ethanol 45.00% w/w, and purified water 25.58% w/w (total 100; * ropinirole HCl 3.42% (MW=296.84) corresponds to ropinirole free base 3% (MW=260.38), ratio 1.14). The formulation was not gellified.
The ropinirole HC1 solution was titrated with NaOH 0.1 M solution. The solvent was the same as the formulation, in order to keep a constant composition. NaOH was chosen so as to limit dilution of the titrated formulation; but no dilution correction was made. The formulation was titrated by 0.5-1 mL increments where the pH change was small. Increments were reduced to 0.1 mL near the equivalence point. The pH was monitored with a glass electrode (Mettler Toledo InLab 432, Mettler-Toledo, Inc., Columbus, Ohio), and recorded with a Mettler Toledo MP. 230 pH meter (Mettler-Toledo, Inc., Columbus, Ohio).
Based on the titration curve, the ionization rate [BH] was calculated according to Henderson-Hasselbalch equation for weak base: […]

[3] = human
Experimental: In vitro data can be extrapolated to in vivo conditions in order to evaluate the gel dose for bioequivalence to ropinirole oral absorption. […] Therefore, an intermediate oral dose of 6 mg/day with BA=50% delivers a systemic dose of 3 mg/day. […] This corresponds to a daily dose of 9.5 mg ropinirole HCl (equivalent to 8.3 mg free base).
Based on these pharmacokinetic parameters, the daily input rate can be estimated using the following equation: Ka=CL×Cp, where Ka is the daily input rate (absorption rate), CL the drug plasma clearance, and Cp the plasma concentration.
Scaled to the clinical daily input rate, the required skin surface can be determined using the following equation: S=Ka/JSS, wherein S is the application skin surface area, and JSS is the in vitro steady-state drug flux.
Alternatively, the gel amount could be increased by 3.7 times (1 g instead of 0.3 g), and be applied to a 3.7 times larger skin area (185 cm instead of 50 cm^2).
This corresponds to a daily dose of 15 mg ropinirole HCl (equivalent to 13 mg free base).

[4] = cited from earlier work
guinea pigs = test: Skin sensitization, induction and challenge; assay type: in vivo; conditions: guinea pigs induced (with and without Freund's Complete Adjuvant) and challenged with 5% ropinirole HCl
[5] = water at 20° C.; cited from earlier work
[6] = EtOH(45)/Water(40)/PG(10), 5% drug

Compound | skin permeation characteristics [1, 6] | peak flux ([1]; EtOH(45)/Water(40)/PG(10), 5% drug, pH 9.5-10.0) [μg/cm^2/hr] | ropinirole remained in the epidermis ([1]; after 48 hours) | Bioavailability in the receptor chamber fluid ([1]; percent dose recovered in receptor fluid) | pKa [2] | Ka, daily input rate (absorption rate), Ka=CL×Cp [3] [µg/h] | Body clearance ([4]; REQUIP Prescribing Information) | maximum plasma levels (Cmax) ([4]; repeated oral administration, 6 mg/day in 3 divided doses, steady state (Taylor et al.)) [ng/mL] | sensitization category (guinea pigs) | solubility in water [5] [mg/mL]
CCCN(CCC)CCc1cccc2c1CC(=O)N2 [ropinirole free base] | good permeation characteristics | 3.5 | Approximately 20% | about 40% | – | – | – | – | – | –
CCCN(CCC)CCc1cccc2c1CC(=O)N2 [ropinirole] | – | – | – | – | 8 | 347.8 | about 47 L/h | 7.4 | – | –
CCCN(CCC)CCc1cccc2c1CC(=O)N2.Cl [Ropinirole hydrochloride, 4-[2-(dipropylamino)-ethyl]-1,3-dihydro-2H-indol-2-one monohydrochloride] | did not permeate well | – | – | – | – | – | – | – | mild sensitizer | 133
